# Test results as given in paper PMC11212140, “Molecular Bidents with Two Electrophilic Warheads as a New Pharmacological Modality” (ACS Central Science, 2024).
# Experiments:
# Assay in all cases: KiNativ profiling in H3255 cells
# Format in all cases: cell-based, human
# PI4KA, PI4KAP2 = settings: 2.5 µM; ATP; SGTPMQSAAKAPYLAK
# Method in brief: (§1)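 Plate H3255 cells, 6.5x10^6 per condition. Treat at 80% confluency with DMSO or 2.5 μM ZNL-0056 for 2 hours. Wash three times in cold PBS, harvest by scraping, pellet, and freeze. ActivX then completes the KiNativ workflow.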
# MAP2K3 = tested on: T1, MAP2K3; settings: 2.5 µM
# T1 construct: purchased ActivX Biosciences (KiNativ)
# Method in brief: as §1
# MAP2K1, MAP2K2 = settings: 2.5 µM
# Method in brief: as §1
# ARAF = tested on: T2, ARAF; settings: 2.5 µM; Lys2; DLKSNNIFLHEGLTVK
# T2 construct: purchased ActivX Biosciences (KiNativ)
# Method in brief: as §1
# MAP2K6 = tested on: T3, MAP2K6; settings: 2.5 µM
# T3 construct: purchased ActivX Biosciences (KiNativ)
# Method in brief: as §1
# CDK4 = tested on: T4, CDK4; settings: 2.5 µM; Lys2; DLKPENILVTSGGTVK
# T4 construct: purchased ActivX Biosciences (KiNativ)
# Method in brief: as §1
# MARK2, MARK3 = settings: 2.5 µM; Lys2; DLKAENLLLDADMNIK
# Method in brief: as §1
# PFTAIRE1 = tested on: T5, PFTAIRE1; settings: 2.5 µM; Lys1; LVALKVIR
# T5 construct: purchased ActivX Biosciences (KiNativ)
# Method in brief: as §1
# LYN = tested on: T6, LYN; settings: 2.5 µM
# T6 construct: purchased ActivX Biosciences (KiNativ)
# Method in brief: as §1
# RON = tested on: T7, RON; settings: 2.5 µM; Lys1; IQCAIKSLSR
# T7 construct: purchased ActivX Biosciences (KiNativ)
# Method in brief: as §1
# MAP4K5 = tested on: T8, MAP4K5; settings: 2.5 µM
# T8 construct: purchased ActivX Biosciences (KiNativ)
# Method in brief: as §1
# PHKg2 = tested on: T9, PHKg2; settings: 2.5 µM; Lys1; ATGHEFAVKIMEVTAER
# T9 construct: purchased ActivX Biosciences (KiNativ)
# Method in brief: as §1
# CK2a1 = tested on: T10, CK2a1; settings: 2.5 µM; Protein Kinase Domain; GGPNIITLADIVKDPVSR
# T10 construct: purchased ActivX Biosciences (KiNativ)
# Method in brief: as §1
# ROCK1 = tested on: T11, ROCK1; settings: 2.5 µM; Other; KLQLELNQER
# T11 construct: purchased ActivX Biosciences (KiNativ)
# Method in brief: as §1
# PKD1, PKD2 = settings: 2.5 µM; Lys2; NIVHCDLKPENVLLASADPFPQVK
# Method in brief: as §1
# CASK = tested on: T12, CASK; settings: 2.5 µM; Lys1; ETGQQFAVKIVDVAK
# T12 construct: purchased ActivX Biosciences (KiNativ)
# Method in brief: as §1
# NDR1 = tested on: T13, NDR1; settings: 2.5 µM
# T13 construct: purchased ActivX Biosciences (KiNativ)
# Method in brief: as §1
# TAK1 = tested on: T14, TAK1; settings: 2.5 µM; Lys2; DLKPPNLLLVAGGTVLK
# T14 construct: purchased ActivX Biosciences (KiNativ)
# Method in brief: as §1
# AurA = tested on: T15, AurA; settings: 2.5 µM
# T15 construct: purchased ActivX Biosciences (KiNativ)
# Method in brief: as §1
# GCN2 domain2 = tested on: T16, GCN2 domain2; settings: 2.5 µM
# T16 construct: GCN2 domain2; purchased ActivX Biosciences (KiNativ)
# Method in brief: as §1
# NDR1, NDR2 = settings: 2.5 µM; Activation Loop; LSDFGLCTGLKK
# Method in brief: as §1
# TBK1 = tested on: T17, TBK1; settings: 2.5 µM; Lys1; TGDLFAIKVFNNISFLRPVDVQMR
# T17 construct: purchased ActivX Biosciences (KiNativ)
# Method in brief: as §1
# MST3 = tested on: T18, MST3; settings: 2.5 µM; Lys2; DIKAANVLLSEHGEVK
# T18 construct: purchased ActivX Biosciences (KiNativ)
# Method in brief: as §1
# FAM20B = tested on: T19, FAM20B; settings: 2.5 µM; ATP; ETEPACADGDIMEGSVTLWLPDVWPLQKHR
# T19 construct: purchased ActivX Biosciences (KiNativ)
# Method in brief: as §1
# p70S6K = tested on: T20, p70S6K; settings: 2.5 µM
# T20 construct: purchased ActivX Biosciences (KiNativ)
# Method in brief: as §1
# BRAF, BRAF V600E = tested on: T21, BRAF, BRAF V600E; settings: 2.5 µM; Lys2; DLKSNNIFLHEDLTVK
# T21 construct: purchased ActivX Biosciences (KiNativ)
# Method in brief: as §1
# MER, TYRO3 = settings: 2.5 µM; Activation Loop; KIYSGDYYR
# Method in brief: as §1
# CSK = tested on: T22, CSK; settings: 2.5 µM
# T22 construct: purchased ActivX Biosciences (KiNativ)
# Method in brief: as §1
# MSK2 domain1 = tested on: T23, MSK2 domain1; settings: 2.5 µM
# T23 construct: MSK2 domain1; purchased ActivX Biosciences (KiNativ)
# Method in brief: as §1
# CK1a = tested on: T24, CK1a; settings: 2.5 µM; Lys2; DIKPDNFLMGIGR
# T24 construct: purchased ActivX Biosciences (KiNativ)
# Method in brief: as §1
# LOK = tested on: T25, LOK; settings: 2.5 µM; Lys2; DLKAGNVLMTLEGDIR
# T25 construct: purchased ActivX Biosciences (KiNativ)
# Method in brief: as §1
# [1] = Activation Loop, MCDFGISGYLVDSVAKTMDAGCKPYMAPER
# [2] = Activation Loop, EGAKFPIKWTAPEAINFGCFTIK
# [3] = Activation Loop, VSDFGLTKEASSTQDTGKLPVK
# [4] = Lys1, VAVKCIKNDATAQAFLAEASVMTQLR
compound,measurement,setting,value
C=CC(=O)Nc1cc(C(=O)Nc2nc3cccc(C)c3n2[C@@H]2CCCCN(C(=O)C=C)C2)cs1 [ZNL-0056],Inhibition,"PI4KA, PI4KAP2",-23.5%
same,Inhibition,MAP2K3; [1],11.1%
same,Inhibition,"MAP2K3; Lys2, DVKPSNVLINK",-14.4%
same,Inhibition,"MAP2K1, MAP2K2; Lys1, KLIHLEIKPAIR",9.8%
same,Inhibition,"MAP2K1, MAP2K2; Lys2, DVKPSNILVNSR",-6.7%
same,Inhibition,ARAF,11.3%
same,Inhibition,"MAP2K6; Lys1, HVPSGQIMAVKR",-13.1%
same,Inhibition,"MAP2K6; Lys2, DVKPSNVLINALGQVK",-0.186%
same,Inhibition,CDK4,-13.0%
same,Inhibition,"MARK2, MARK3",9.0%
same,Inhibition,PFTAIRE1,20.8%
same,Inhibition,LYN; [2],-13.3%
same,Inhibition,"LYN; Lys1, VAVKTLKPGTMSVQAFLEEANLMK",-8.7%
same,Inhibition,RON,-9.0%
same,Inhibition,"MAP4K5; Lys1, NVHTGELAAVKIIK",-3.7%
same,Inhibition,"MAP4K5; Lys2, DIKGANILLTDHGDVK",15.2%
same,Inhibition,PHKg2,-4.2%
same,Inhibition,CK2a1,6.3%
same,Inhibition,ROCK1,-20.4%
same,Inhibition,"PKD1, PKD2",7.5%
same,Inhibition,CASK,-14.3%
same,Inhibition,"NDR1; Lys1, DTGHVYAMKILR",6.1%
same,Inhibition,"NDR1; Lys2, DIKPDNLLLDSK",5.7%
same,Inhibition,TAK1,10.2%
same,Inhibition,"AurA; Lys1, FILALKVLFK",-0.0337%
same,Inhibition,"AurA; Lys2, DIKPENLLLGSAGELK",-15.7%
same,Inhibition,"GCN2 domain2; Lys1, LDGCCYAVKR",0.0617%
same,Inhibition,"GCN2 domain2; Lys2, DLKPVNIFLDSDDHVK",5.5%
same,Inhibition,"NDR1, NDR2",-7.6%
same,Inhibition,TBK1,5.3%
same,Inhibition,MST3,-1.1%
same,Inhibition,FAM20B,-17.9%
same,Inhibition,"p70S6K; Lys1, IFAMKVLK",23.2%
same,Inhibition,"p70S6K; Lys2, DLKPENIMLNHQGHVK",-10.8%
same,Inhibition,"BRAF, BRAF V600E",4.5%
same,Inhibition,"MER, TYRO3",2.6%
same,Inhibition,CSK; [3],-1.9%
same,Inhibition,"CSK; Lys1, VAVKCIK",-0.8%
same,Inhibition,CSK; [4],6.7%
same,Inhibition,"MSK2 domain1; Lys1, LYAMKVLR",-2.6%
same,Inhibition,"MSK2 domain1; Lys2, DLKLENVLLDSEGHIVLTDFGLSK",18.7%
same,Inhibition,CK1a,10.2%
same,Inhibition,LOK,-15.4%
"C=CC(=O)Nc1cc(Nc2nccc(-c3cn(C)c4ccccc34)n2)c(OC)cc1N(C)CCN(C)C [Osimertinib, osimertinib, reference compound]",Inhibition,"PI4KA, PI4KAP2",30.1%
same,Inhibition,MAP2K3; [1],-14.4%
same,Inhibition,"MAP2K3; Lys2, DVKPSNVLINK",-14.5%
same,Inhibition,"MAP2K1, MAP2K2; Lys1, KLIHLEIKPAIR",-64.7%
same,Inhibition,"MAP2K1, MAP2K2; Lys2, DVKPSNILVNSR",-10.5%
same,Inhibition,ARAF,-20.1%
same,Inhibition,"MAP2K6; Lys1, HVPSGQIMAVKR",6.1%
same,Inhibition,"MAP2K6; Lys2, DVKPSNVLINALGQVK",-10.0%
same,Inhibition,CDK4,-1.3%
same,Inhibition,"MARK2, MARK3",-12.0%
same,Inhibition,PFTAIRE1,2.2%
same,Inhibition,LYN; [2],7.2%
same,Inhibition,"LYN; Lys1, VAVKTLKPGTMSVQAFLEEANLMK",-3.5%
same,Inhibition,RON,8.9%
same,Inhibition,"MAP4K5; Lys1, NVHTGELAAVKIIK",-13.4%
same,Inhibition,"MAP4K5; Lys2, DIKGANILLTDHGDVK",-6.7%
same,Inhibition,PHKg2,-24.7%
same,Inhibition,CK2a1,-0.558%
same,Inhibition,ROCK1,-7.6%
same,Inhibition,"PKD1, PKD2",-8.5%
same,Inhibition,CASK,6.8%
same,Inhibition,"NDR1; Lys1, DTGHVYAMKILR",-7.9%
same,Inhibition,"NDR1; Lys2, DIKPDNLLLDSK",12.0%
same,Inhibition,TAK1,-9.8%
same,Inhibition,"AurA; Lys1, FILALKVLFK",-3.3%
same,Inhibition,"AurA; Lys2, DIKPENLLLGSAGELK",2.6%
same,Inhibition,"GCN2 domain2; Lys1, LDGCCYAVKR",3.6%
same,Inhibition,"GCN2 domain2; Lys2, DLKPVNIFLDSDDHVK",-25.4%
same,Inhibition,"NDR1, NDR2",-22.1%
same,Inhibition,TBK1,-18.1%
same,Inhibition,MST3,-15.5%
same,Inhibition,FAM20B,20.1%
same,Inhibition,"p70S6K; Lys1, IFAMKVLK",-2.7%
same,Inhibition,"p70S6K; Lys2, DLKPENIMLNHQGHVK",-39.3%
same,Inhibition,"BRAF, BRAF V600E",-9.2%
same,Inhibition,"MER, TYRO3",33.0%
same,Inhibition,CSK; [3],-3.3%
same,Inhibition,"CSK; Lys1, VAVKCIK",-17.2%
same,Inhibition,CSK; [4],16.1%
same,Inhibition,"MSK2 domain1; Lys1, LYAMKVLR",-36.1%
same,Inhibition,"MSK2 domain1; Lys2, DLKLENVLLDSEGHIVLTDFGLSK",5.0%
same,Inhibition,CK1a,12.6%
same,Inhibition,LOK,-8.3%
